Measured values: ChEMBL document CHEMBL1201862, “PubChem BioAssay data set” (2004)
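Test compounds were applied to cells in 96-well plates for 48 hours at 5 doses. Abbreviation: GI50, concentration required for 50% inhibition of growth.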 Active and inactive are the calls of the source. Cut-off read from the data, not from the text of the source: active = GI50 up to about 1.1 µM and inactive = higher.

What was measured:
Assay in all cases: DTP human tumour cell line panel, 48 h
[1] = test system: SNB-75
[2] = test system: EKVX
[3] = test system: HT-29
[4] = test system: NCI-H460
[5] = test system: OVCAR-8
[6] = test system: NCI-H226
[7] = test system: NCI-H522
[8] = test system: NCI-H23
[9] = test system: OVCAR-3
[10] = test system: SK-MEL-5
[11] = test system: SF-539
[12] = test system: A549
[13] = test system: HCC 2998
[14] = test system: RPMI-8226
[15] = test system: HCT-116
[16] = test system: HOP-92
[17] = test system: A498
[18] = test system: RXF 393

Measured: GI50

COc1ccccc1/C=C1\C(=O)N(C(=O)c2ccc(NC(C)=O)cc2)N=C1C
inactive: [1] > 100 µM | [2] > 100 µM | [3] > 100 µM | [4] > 100 µM | [5] > 100 µM | [6] > 100 µM | [7] > 100 µM | [8] > 100 µM | [9] > 100 µM | [10] > 100 µM | [11] > 100 µM | [12] > 100 µM | [13] > 100 µM | [14] > 100 µM | [15] > 100 µM

CCn1c2c(c3ccccc31)C(c1ccccc1)CC1C(=O)N(c3ccccc3)C(=O)C21 (stereo not given)
inactive: [1] 17.6 µM | [2] 42.8 µM | [16] 26.2 µM | [4] 54.1 µM | [5] 9.59 µM | [6] 31.8 µM | [7] 72.8 µM | [8] > 100 µM | [9] > 100 µM | [10] 31.7 µM | [11] 35.4 µM | [12] 21.9 µM | [13] 59 µM | [15] 55 µM | [17] 5.78 µM

CN(C(=O)C12C3C4C1C1C2C3C41C#N)C(C)(C)C (stereo not given)
inactive: [1] 69.2 µM | [2] > 100 µM | [3] > 100 µM | [4] > 100 µM | [5] > 100 µM | [6] > 100 µM | [7] > 100 µM | [8] > 100 µM | [9] > 100 µM | [10] > 100 µM | [11] > 100 µM | [12] > 100 µM | [13] > 100 µM | [14] > 100 µM | [15] > 100 µM | [17] > 100 µM

CCCC(=O)c1ccc2c(ccc(=O)n2C)c1
inactive: [1] 27.2 µM | [2] 42.2 µM | [16] 46.2 µM | [3] > 100 µM | [4] > 100 µM | [5] > 100 µM | [6] 31 µM | [7] 31.9 µM | [8] > 100 µM | [9] > 100 µM | [10] 72.9 µM | [11] > 100 µM | [12] > 100 µM | [13] > 100 µM | [14] > 100 µM | [15] > 100 µM | [17] 83 µM

O=C1C=C/C(=N\c2ccc3c(c2)C(Br)c2ccccc2-3)O1 (stereo not given)
inactive: [1] > 100 µM | [2] 52 µM | [4] > 100 µM | [5] 72.6 µM | [7] 25.9 µM | [8] > 100 µM | [9] > 100 µM | [11] > 100 µM | [12] > 100 µM | [13] > 100 µM | [18] > 100 µM | [14] 68.2 µM | [15] > 100 µM

COc1ccc2c([nH]c3cc(O)c(C)cc32)c1C=O
inactive: [16] > 25 µM | [3] > 25 µM | [4] 11.2 µM | [5] > 25 µM | [6] > 25 µM | [7] 20 µM | [9] > 25 µM | [10] > 25 µM | [11] > 25 µM | [12] 18.5 µM | [13] > 25 µM | [18] > 25 µM | [14] > 25 µM | [15] > 25 µM

CCCCCCCCCCCCCCCCCCCCCCC(=O)N[C@H]1CCc2cc(OC)c(OC)c(OC)c2-c2ccc(SC)c(=O)cc21
inactive: [1] 20.2 µM | [2] 29.1 µM | [16] 34.4 µM | [3] 30.6 µM | [4] 28.4 µM | [5] 26.5 µM | [6] 2.52 µM | [7] 13.4 µM | [8] 25.5 µM | [9] 24.2 µM | [10] 28.4 µM | [11] 17.6 µM | [12] 26.4 µM | [13] 25.5 µM | [15] 26 µM | [17] 11.5 µM

CC1(C)Cc2cc(C(=O)O)c3c(c2C1=O)COCC3
inactive: [1] > 100 µM | [2] > 100 µM | [3] > 100 µM | [4] > 100 µM | [5] > 100 µM | [6] > 100 µM | [7] 32.4 µM | [8] > 100 µM | [9] > 100 µM | [10] > 100 µM | [11] > 100 µM | [12] > 100 µM | [13] > 100 µM | [18] > 100 µM | [14] > 100 µM | [15] > 100 µM | [17] > 100 µM

Cc1nnc(N/N=C2\C(=O)Nc3ccccc32)n1N
inactive: [1] > 100 µM | [2] > 100 µM | [3] > 100 µM | [4] > 100 µM | [5] > 100 µM | [6] > 100 µM | [7] > 100 µM | [8] > 100 µM | [9] > 100 µM | [10] > 100 µM | [11] > 100 µM | [12] > 100 µM | [13] > 100 µM | [18] > 100 µM | [14] > 100 µM | [15] > 100 µM | [17] > 100 µM

COc1cc(OC)c2c(=O)cc(-c3ccc(OC)c(OC)c3OC)oc2c1
inactive: [1] 6.95 µM | [2] > 100 µM | [16] 37 µM | [3] > 100 µM | [6] > 100 µM | [7] 38.9 µM | [8] > 100 µM | [9] > 100 µM | [11] 31.9 µM | [12] > 100 µM | [13] > 100 µM | [18] 57.5 µM | [14] > 100 µM | [15] > 100 µM

NCP(=O)(O)OCC(=O)O
inactive: [1] > 100 µM | [2] > 100 µM | [16] > 100 µM | [3] > 100 µM | [4] > 100 µM | [5] > 100 µM | [7] > 100 µM | [8] > 100 µM | [9] > 100 µM | [10] > 100 µM | [11] > 100 µM | [12] > 100 µM | [18] > 100 µM | [15] > 100 µM | [17] > 100 µM

COc1ccc(/C=C2\CNC/C(=C\c3ccc(OC)cc3)C2=O)cc1
inactive: [1] 30.4 µM | [2] > 100 µM | [16] 56.9 µM | [3] 27.2 µM | [4] 47.9 µM | [5] 16.1 µM | [6] > 100 µM | [8] 15.8 µM | [9] 35 µM | [10] > 100 µM | [11] 13.6 µM | [12] 59.4 µM | [13] 35.3 µM | [18] 21 µM | [14] 15.6 µM | [15] 3.24 µM

CC(C)(C)C1CCC2c3c([nH]c4ccccc34)C3C(=O)N(c4ccccc4)C(=O)C3C2C1 (stereo not given)
inactive: [1] 2.85 µM | [2] 14.9 µM | [3] 8.93 µM | [4] 3.7 µM | [5] 4.84 µM | [6] 5.82 µM | [8] 12 µM | [9] 4.01 µM | [10] > 10 µM | [11] 8.97 µM | [12] 10.8 µM | [13] 9.53 µM | [18] 3.81 µM | [14] 7.78 µM | [17] 2.5 µM
